Results taken from patent US20120225889A1, “USE OF MACROCYCLIC LACTONE DERIVATIVES FOR THE TREATMENT OF INFLAMMATORY DISORDERS” (PIRAMAL LIFE SCIENCES LIMITED, priority 2010, published 2012).
Read-outs that look alike come from different tables or passages of the source.

Columns and labels:
TNF-α = assay: Cytokine release assay in hPBMCs: TNF-α; assay type: cell-based; details: Homo sapiens
Description: hPBMCs were obtained from healthy donors by centrifugation of heparinized venous blood over Ficoll/Hypaque solution (Histopaque-1077, Sigma, USA). Isolated hPBMCs were suspended in RPMI 1640 culture medium supplemented with 10% FBS and seeded at a density of 50,000 cells/well in a 96-well plate (Nunc, USA). The cells were incubated at 37° C., 5% CO2 for a period of 24 h. These cells were used for the lymphocyte proliferation as well as cytokine release assay.
The plated cells were treated with different concentrations of the test compound (prepared as mM stock in DMSO and diluted with DMSO to achieve the following final concentrations in the assay: 100, 10, 1, 0.1, 0.01, 0.001, 0.0001, 0.00001 and 0.000001 μM) and incubated for 30 min. The cells were then stimulated with PHA (prepared as 1 mg/mL stock in RPMI 1640 culture medium and used at a final concentration of 5 μg/mL). FK506 was used as a standard. The plates were incubated at 37° C., 5% CO2 for 48 h. The cytokines in the supernatant collected were detected using ELISA kit (BD biosciences, USA). The cytokines evaluated in the assay were TNF-α, IL-2, IL-6, and IFN-γ.

cMyc = assay: Gene expression profile using RTQ-PCR: cMyc; assay type: cell-based, human; details: 3 μM
Description: (§1) The effect of the compound of example 7 was measured in stimulated untreated cells from the monocytic cell line (THP-1), human monocytes and synovial cells from rheumatoid arthritis patient. The effect of the compound in the THP-1 cell line was measured in terms of gene expression and was expressed as fold changes as compared to the cell stimulated control with no drug treatment.
(§2) THP-1 cells, human monocytes and synovial cells were treated with compound of example 7 or vehicle (0.5% DMSO). Total RNA isolation using a commercial RNA extraction kit (Qiagen Corporation, Germany) The first-strand cDNA was synthesized from total RNA using first strand cDNA synthesis kit from Invitrogen Corporation (California, USA). This was followed by real time quantitative polymerase chain reaction (RTQ PCR) using gene specific primers and standard thermal program of initial denaturation at 95° C. for 5 min and cycles of 95° C. for 10 seconds, followed by 60° C. for 30 seconds (Realplex PCR machine from Eppendorf, Germany). Quantitative measurement of products made during PCR cycles was normalized against a housekeeping gene (Actin) and was used to measure the gene expression as fold changes as compared to respective control.

MMP13 = assay: Gene expression profile using RTQ-PCR: MMP13; assay type: cell-based, human; details: 3 μM
Description: as §1, §2

IL-1β = assay: Gene expression profile using RTQ-PCR: IL-1β; assay type: cell-based, human; details: 3 μM
Description: as §1, §2

[1] = Human monocytes, 3 h, ± SE, N = 3

In the case of `C/C=C/C(O)C(C)/C=C/C(=N\O)C(C)C(O)C(C)C1OC(=O)/C(OC)=C/C(C)=C/C(C)C(O)C(CC)C(O)C(C)C/C(C)=C/C=C/C1OC` (centres unmarked) [Compound of example 7, (3Z,5E,13E,15E)-18-((5Z,6E,10E)-3,9-Dihydroxy-5-(hydroxymino)-4,8-dimethyldodeca-6,10-dien-2-yl)-9-ethyl-8,10-dihydroxy-3,17-dimethoxy-5,7,11,13-tetramethyl oxacyclooctadeca-3,5,13,15-tetraen-2-one], the IC50 (TNF-α; Table 3: PHA-PMA induced hPBMC's, 48 h, read-out: TNF-α IC50) is reported as 0.02 µM, the IC50 (TNF-α; Table 4: mitogen stimulated production from hPBMC's, read-out: TNF-α (IC50 μM)) is reported as 0.07 µM and the cMyc gene expression (cMyc; [1]) is reported as −1.9 + 1.7 log fold change. The cMyc gene expression (cMyc; Synovial cells, 12 h, N = 1) was −0.5 log fold change, the cMyc gene expression (cMyc; THP-1 cells, 12 h, ± SE, N = 3) was −1.1 log fold change and the MMP13 gene expression (MMP13; [1]) was −2.2 + 2.0 log fold change. The MMP13 gene expression (MMP13; Synovial cells, 12 h, N = 1) was −4.0 log fold change, the MMP13 gene expression (MMP13; THP-1 cells, 12 h, ± SE, N = 3) was −4.1 + 3.5 log fold change and the IL-1β gene expression (IL-1β; [1]) was −4.0 log fold change. For the same compound, the IL-1β gene expression (IL-1β; Synovial cells, 12 h, N = 1) was −0.3 log fold change and the IL-1β gene expression (IL-1β; THP-1 cells, 12 h, ± SE, N = 3) was −0.6 + 0.7 log fold change.
